Test results from US20250264483A1, “IDENTIFICATION OF PROTHROMBOTIC CONDITIONS” (Sydney Local Health District, priority 2020, published 2025).

What was measured:
healthy donor platelets [1] = experiment: Procoagulant platelet flow cytometry assay (GSAO+/CD62P+), healthy donor whole blood with HIT patient plasma; assay type: cell-based, human; conditions: for difference in proportion of PP with HIT+ plasma compared to HIT−, no plasma or autologous plasma: agonist alone, absence of exogenous heparin (SFLLRN 5 μM, ADP 20 μM, CRP-xL 2 μg/mL; FIG. 2)
Procedure: (§1) The GSAO-based whole blood PP flow cytometry assay established by the inventors^4 was modified to incorporate patient plasma. Citrated whole blood (13 μL) was incubated with and without agonists, unfractionated heparin (Pfizer) and plasma (5 μL) for 10 minutes with final concentrations of 2.5 mM Gly-Pro-Arg-Pro peptide (Sigma-Aldrich) and 2.5 mM calcium chloride. […] In some experiments, blood was pre-treated with 10 μg/mL IV.3 (StemCell Technologies), a monoclonal antibody against FcγRIIa, for 15 minutes prior to the reaction. Samples were incubated with antibodies to CD45, CD41a, CD62P—or isotype control, and GSAO or GSCA, and fixed before analysis on a BD LSRFortessa X-20.
Representative flow cytometry plots from a single donor comparing no plasma with HIT− or HIT+ plasma indicate that addition of HIT+ plasma altered the sub-population profile of the platelets with a marked increase in procoagulant (GSAO+/CD62P+) platelets (FIG. 1A). […] There was also a smaller but statistically significant increase seen with HIT− plasma compared to no plasma (53.63±6.82 vs 42.05±4.24, P<0.05) (FIG. 1B).

healthy donor platelets [2] = experiment: Procoagulant platelet flow cytometry assay, healthy donor whole blood with VITT patient plasma; assay type: cell-based, human; conditions: for proportion of procoagulant platelets: mean±SD
healthy donor platelets [3] = experiment: Procoagulant platelet flow cytometry assay, healthy donor whole blood with APS patient plasma; assay type: cell-based, human; conditions: for Average fold-change in procoagulant platelets: APS patient plasma
Procedure: as §1
Citrated whole blood (13 μL) was incubated with platelet agonists and plasma (5 μL) from healthy donors or patients, for 10 minutes with final concentrations of 2.5 mM Gly-Pro-Arg-Pro peptide (Sigma-Aldrich) and 2.5 mM calcium chloride in a 50 μL reaction. […] The reaction was stopped by further dilution with HBSS, followed by staining with antibodies to CD45 (HI30) (StemCell Technologies), CD41a (HIP8) (BD Biosciences), CD62P (Psel.KO2.3) (eBioscience)—or isotype control (eBioscience), and GSAO or control compound GSCA (4-(N—(S-glutathionylacetyl)amino)benzoic acid). Then, samples were fixed with PAMFix (Platelet Solutions Ltd), centrifuged and resuspended, prior to analysis on a BD LSRFortessa X-20 or BD FACSCanto II cytometer with acquisition of 10000 platelet events. Statistical analyses were performed using GraphPad Prism 9, with statistical significance set at p<0.05.

[4] = cited from earlier work
[5] = HIT+ plasma, agonist, no heparin (FIGS. 3B, D), mean±SEM
[6] = HIT+ plasma, combined sample + agonist + therapeutic concentration heparin / high heparin control sample
[7] = HIT+ plasma, combined sample + agonist + therapeutic concentration heparin / no heparin control sample

## SFLLRN
Healthy donor platelets [1]; [5]
  proportion of PP: 11.19±3.23
Healthy donor platelets [1]; [6]
  Average fold-change in procoagulant platelets: 8.5 fold
Healthy donor platelets [1]; [7]
  Average fold-change in procoagulant platelets: 3.7 fold
Healthy donor platelets [1]
  difference in proportion of PP with HIT+ plasma compared to HIT−, no plasma or autologous plasma: no difference
Healthy donor platelets [2]; SFLLRN 5 μM, ELISA false positive plasma (FIG. 9C)
  PP proportion: 3.93±0.78%
Healthy donor platelets [2]; SFLLRN 5 μM, HIT-like VITT (heparin-enhancing VITT) plasma (FIG. 8B)
  proportion of procoagulant platelets: 23.60±8.768
Healthy donor platelets [2]; SFLLRN 5 μM, VITT negative plasma (FIG. 8B)
  proportion of procoagulant platelets: 2.988±0.9564
Healthy donor platelets [2]; SFLLRN 5 μM, VITT plasma (FIG. 8B)
  proportion of procoagulant platelets: 16.34±13.74
Healthy donor platelets [2]; SFLLRN 5 μM, VITT-negative plasma (FIG. 9C)
  PP proportion: 4.50±2.09%
Healthy donor platelets [2]; SFLLRN 5 μM, healthy donor blood, no plasma (FIG. 9C)
  PP proportion: 3.86±0.97%
Healthy donor platelets [2]; SFLLRN 5 μM, no plasma (FIG. 8B)
  proportion of procoagulant platelets: 3.194±0.8185
Healthy donor platelets [2]; SFLLRN 5 μM, plasma from healthy individuals (FIG. 9C)
  PP proportion: 3.57±1.36%
Healthy donor platelets [3]; APS plasma vs autologous plasma (FIG. 13A, C)
  change in procoagulant response between patient and autologous plasma: No significant change

## low-molecular-weight heparin
[4]
  occurrence of HIT in patients receiving the drug: 0.2%

## thrombin: bovine thrombin (Sigma-Aldrich), platelet agonist
Healthy donor platelets [1]; HIT+ plasma, absence of heparin (FIG. 6A, D), thrombin 1 U/mL, CRP-xL 2 μg/mL
  proportion of PP: 18.86±3.94
Healthy donor platelets [1]; HIT− plasma, absence of heparin (FIG. 6A, D), thrombin 1 U/mL, CRP-xL 2 μg/mL
  proportion of PP: 19.55±4.16
Healthy donor platelets [1]; no plasma, absence of heparin (FIG. 6A, D), thrombin 1 U/mL, CRP-xL 2 μg/mL
  proportion of PP: 4.16±0.24
Healthy donor platelets [3]; combined sample / healthy control sample
  Average fold-change in procoagulant platelets: 5.7 fold
Healthy donor platelets [3]; combined sample / healthy control sample + autologous plasma
  Average fold-change in procoagulant platelets: 2.1 fold
Healthy donor platelets [3]; autologous plasma, thrombin stimulation (FIG. 13B)
  increase in procoagulant platelet proportions relative to no plasma: 0.3-5.5%
Healthy donor platelets [3]; plasma from an APS patient collected during plasma exchange, thrombin 1 U/mL, CRP-xL 2 μg/mL (FIG. 14)
  increase in procoagulant platelet response: 4.5 fold

## Nc1ncnc2c1ncn2[C@@H]1O[C@H](COP(=O)(O)OP(=O)(O)O)[C@@H](O)[C@H]1O [ADP, adenosine diphosphate]
Healthy donor platelets [1]; [5]
  proportion of PP: 5.66±0.79
Healthy donor platelets [1]; [6]
  Average fold-change in procoagulant platelets: 5.5 fold
Healthy donor platelets [1]; [7]
  Average fold-change in procoagulant platelets: 4.4 fold
Healthy donor platelets [1]
  difference in proportion of PP with HIT+ plasma compared to HIT−, no plasma or autologous plasma: no difference

## heparin
Healthy donor platelets [1]; HIT+ plasma, ADP 20 μM, high-dose heparin 100 U/mL
  proportion of PP: 5.16±0.52
Healthy donor platelets [1]; HIT+ plasma, ADP 20 μM, therapeutic-concentration heparin 0.5 U/mL
  proportion of PP: 25.22±5.94
Healthy donor platelets [1]; HIT+ plasma, CRP-xL 2 μg/mL, high-dose heparin 100 U/mL
  proportion of PP: 11.70±2.63
Healthy donor platelets [1]; HIT+ plasma, CRP-xL 2 μg/mL, therapeutic-concentration heparin 0.5 U/mL
  proportion of PP: 26.87±3.58
Healthy donor platelets [1]; HIT+ plasma, SFLLRN 5 μM, high-dose heparin 100 U/mL
  proportion of PP: 4.39±0.35
Healthy donor platelets [1]; HIT+ plasma, SFLLRN 5 μM, therapeutic-concentration heparin 0.5 U/mL
  proportion of PP: 36.53±7.50
Healthy donor platelets [1]; HIT− plasma, therapeutic or high heparin concentrations (FIGS. 3A, C, E)
  difference in PP formation in response to SFLLRN, ADP or CRP-xL: no difference
Healthy donor platelets [1]; heparin 0.5 U/mL or 100 U/mL, HIT+ or HIT− plasma, no platelet agonist (FIG. 2)
  difference in PP proportion compared to basal levels without exogenous plasma: no differences
Healthy donor platelets [2]; high-dose heparin 100 U/mL, HIT plasma, SFLLRN 5 μM (FIG. 10B)
  PP response: 3.48±1.02%
Healthy donor platelets [2]; high-dose heparin 100 U/mL, VITT plasma, SFLLRN 5 μM
  PP response: 3.54±1.41%
Healthy donor platelets [2]; low-dose heparin 0.5 U/mL, VITT plasma, SFLLRN 5 μM (FIG. 10A)
  PP response: 12.48±12.84%
[4]
  occurrence of HIT in patients receiving the drug: up to 3%
